Patent US20240092835A1, “NOVEL PEPTIDES CAPABLE OF ALTERING NK CELL ACTIVITY” (Massachusetts Institute of Technology, priority 2022, published 2024)
Where no end group is shown, it is not given here.

Columns and labels:
CD94/NKG2A = CD94/NKG2A (Homo sapiens, UniProt P26715+Q13241); assay: Steady-state surface plasmon resonance of peptide-HLA-E complex with CD94/NKG2A; assay type: binding; details: for Binding of peptide-HLA-E complexes to CD94/NKG2A normalized to a theoretical Rmax: steady-state SPR
Description: (§1) Binding affinity of novel peptides linked to HLA-E was determined using surface plasmon resonance (SPR), a methodology used to study protein-protein interactions (Tables 15-19). The peptide-HLA-E complex (generated as a single chain trimer) was immobilized on the sensor chip surface and CD94/NKG2A or CD94/NKG2C were flowed over. Steady-state surface plasmon resonance experiments were performed with a Biacore T200 instrument. CD94/NKG2x in HBS-EP+ buffer was injected as analyte in a concentration range of 0.1 μM to 102.4 μM and flow rate of 10 μL/min at 25° C. Data was fit with Prism 9.4 (GraphPad Software Inc; San Diego CA) to a “one site, specific binding” model. Series S CM5 chips were coupled to neutravidin and utilized. Biotinylated pMHC was immobilized at approximately 400 RU. KD values calculated by Biacore software are reported. Rmax, fit values were calculated by Biacore software. Rmax, theoretical values were calculated using the analyte/ligand mass ratio (0.66) multiplied by the amount of ligand coupled to the chip.

CD94/NKG2C = CD94/NKG2C (Homo sapiens, UniProt P26717+Q13241); assay: Steady-state surface plasmon resonance of peptide-HLA-E complex with CD94/NKG2C; assay type: binding; details: for Binding of peptide-HLA-E complexes to CD94/NKG2C normalized to a theoretical Rmax: steady-state SPR
Description: as §1

Sequence of CD94/NKG2C (P26717 94-231 limits assumed): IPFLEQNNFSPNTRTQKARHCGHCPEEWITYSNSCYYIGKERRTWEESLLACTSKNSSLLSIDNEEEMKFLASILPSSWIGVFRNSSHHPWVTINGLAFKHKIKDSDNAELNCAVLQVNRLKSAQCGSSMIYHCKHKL
Sequence of CD94/NKG2C (Q13241 32-179 limits assumed): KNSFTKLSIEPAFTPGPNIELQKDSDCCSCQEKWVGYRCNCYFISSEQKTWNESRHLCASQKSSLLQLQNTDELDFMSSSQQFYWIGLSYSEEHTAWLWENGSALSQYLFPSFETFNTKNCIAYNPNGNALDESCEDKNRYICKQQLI
Sequence of CD94/NKG2A (P26715 94-233 limits assumed): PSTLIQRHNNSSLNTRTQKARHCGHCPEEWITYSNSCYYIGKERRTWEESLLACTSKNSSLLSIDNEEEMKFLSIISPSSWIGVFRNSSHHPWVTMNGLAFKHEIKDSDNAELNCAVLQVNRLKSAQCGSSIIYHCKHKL
Sequence of CD94/NKG2A (Q13241 32-179 limits assumed): as the sequence (Q13241 32-179 limits assumed) above

In the case of VNPGRSLFL [human5, VNPGRSLFL], the “binding of peptide-HLA-E complex to CD94/NKG2A normalized to a fitted Rmax” value (CD94/NKG2A; CD94/NKG2A concentration 0 μM) is reported as −0.002, the “binding of peptide-HLA-E complex to CD94/NKG2A normalized to a fitted Rmax” value (CD94/NKG2A; CD94/NKG2A concentration 0.1 μM) is reported as 0.177 and the “binding of peptide-HLA-E complex to CD94/NKG2A normalized to a fitted Rmax” value (CD94/NKG2A; CD94/NKG2A concentration 0.2 μM) is reported as 0.288. For the same sequence, the “binding of peptide-HLA-E complex to CD94/NKG2A normalized to a fitted Rmax” value (CD94/NKG2A; CD94/NKG2A concentration 0.4 μM) was 0.434, the “binding of peptide-HLA-E complex to CD94/NKG2A normalized to a fitted Rmax” value (CD94/NKG2A; CD94/NKG2A concentration 0.8 μM) was 0.593 and the “binding of peptide-HLA-E complex to CD94/NKG2A normalized to a fitted Rmax” value (CD94/NKG2A; CD94/NKG2A concentration 1.6 μM) was 0.739. The “binding of peptide-HLA-E complex to CD94/NKG2A normalized to a fitted Rmax” value (CD94/NKG2A; CD94/NKG2A concentration 3.2 μM) was 0.863, the “binding of peptide-HLA-E complex to CD94/NKG2A normalized to a fitted Rmax” value (CD94/NKG2A; CD94/NKG2A concentration 6.4 μM) was 0.955 and the “binding of peptide-HLA-E complex to CD94/NKG2A normalized to a fitted Rmax” value (CD94/NKG2A; CD94/NKG2A concentration 12.8 μM) was 1.018. For the same sequence, the “binding of peptide-HLA-E complex to CD94/NKG2A normalized to a fitted Rmax” value (CD94/NKG2A; CD94/NKG2A concentration 25.6 μM) was 1.059, the “binding of peptide-HLA-E complex to CD94/NKG2A normalized to a fitted Rmax” value (CD94/NKG2A; CD94/NKG2A concentration 51.2 μM) was 1.081 and the “binding of peptide-HLA-E complex to CD94/NKG2A normalized to a fitted Rmax” value (CD94/NKG2A; CD94/NKG2A concentration 102.4 μM) was 1.105. The “Binding of peptide-HLA-E complexes to CD94/NKG2A normalized to a theoretical Rmax” value (CD94/NKG2A; CD94/NKG2A analyte concentration 0.000 μM) was −0.001, the “Binding of peptide-HLA-E complexes to CD94/NKG2A normalized to a theoretical Rmax” value (CD94/NKG2A; CD94/NKG2A analyte concentration 0.100 μM) was 0.074 and the “Binding of peptide-HLA-E complexes to CD94/NKG2A normalized to a theoretical Rmax” value (CD94/NKG2A; CD94/NKG2A analyte concentration 0.200 μM) was 0.120. The “Binding of peptide-HLA-E complexes to CD94/NKG2A normalized to a theoretical Rmax” value (CD94/NKG2A; CD94/NKG2A analyte concentration 0.400 μM) was 0.181, the “Binding of peptide-HLA-E complexes to CD94/NKG2A normalized to a theoretical Rmax” value (CD94/NKG2A; CD94/NKG2A analyte concentration 0.800 μM) was 0.247 and the “Binding of peptide-HLA-E complexes to CD94/NKG2A normalized to a theoretical Rmax” value (CD94/NKG2A; CD94/NKG2A analyte concentration 1.600 μM) was 0.308. For the same sequence, the “Binding of peptide-HLA-E complexes to CD94/NKG2A normalized to a theoretical Rmax” value (CD94/NKG2A; CD94/NKG2A analyte concentration 3.200 μM) was 0.360, the “Binding of peptide-HLA-E complexes to CD94/NKG2A normalized to a theoretical Rmax” value (CD94/NKG2A; CD94/NKG2A analyte concentration 6.400 μM) was 0.398 and the “Binding of peptide-HLA-E complexes to CD94/NKG2A normalized to a theoretical Rmax” value (CD94/NKG2A; CD94/NKG2A analyte concentration 12.800 μM) was 0.425. For the same sequence, the “Binding of peptide-HLA-E complexes to CD94/NKG2A normalized to a theoretical Rmax” value (CD94/NKG2A; CD94/NKG2A analyte concentration 25.600 μM) was 0.442, the “Binding of peptide-HLA-E complexes to CD94/NKG2A normalized to a theoretical Rmax” value (CD94/NKG2A; CD94/NKG2A analyte concentration 51.200 μM) was 0.451 and the “Binding of peptide-HLA-E complexes to CD94/NKG2A normalized to a theoretical Rmax” value (CD94/NKG2A; CD94/NKG2A analyte concentration 102.400 μM) was 0.461. The “binding of peptide-HLA-E complex to CD94/NKG2C normalized to a fitted Rmax” value (CD94/NKG2C; CD94/NKG2C concentration 0 μM) was −0.001, the “binding of peptide-HLA-E complex to CD94/NKG2C normalized to a fitted Rmax” value (CD94/NKG2C; CD94/NKG2C concentration 0.1 μM) was 0.064 and the “binding of peptide-HLA-E complex to CD94/NKG2C normalized to a fitted Rmax” value (CD94/NKG2C; CD94/NKG2C concentration 0.2 μM) was 0.119. The “binding of peptide-HLA-E complex to CD94/NKG2C normalized to a fitted Rmax” value (CD94/NKG2C; CD94/NKG2C concentration 0.4 μM) was 0.205, the “binding of peptide-HLA-E complex to CD94/NKG2C normalized to a fitted Rmax” value (CD94/NKG2C; CD94/NKG2C concentration 0.8 μM) was 0.333 and the “binding of peptide-HLA-E complex to CD94/NKG2C normalized to a fitted Rmax” value (CD94/NKG2C; CD94/NKG2C concentration 1.6 μM) was 0.488. The “binding of peptide-HLA-E complex to CD94/NKG2C normalized to a fitted Rmax” value (CD94/NKG2C; CD94/NKG2C concentration 3.2 μM) was 0.650, the “binding of peptide-HLA-E complex to CD94/NKG2C normalized to a fitted Rmax” value (CD94/NKG2C; CD94/NKG2C concentration 6.4 μM) was 0.795 and the “binding of peptide-HLA-E complex to CD94/NKG2C normalized to a fitted Rmax” value (CD94/NKG2C; CD94/NKG2C concentration 12.8 μM) was 0.902. For the same sequence, the “binding of peptide-HLA-E complex to CD94/NKG2C normalized to a fitted Rmax” value (CD94/NKG2C; CD94/NKG2C concentration 25.6 μM) was 0.971, the “binding of peptide-HLA-E complex to CD94/NKG2C normalized to a fitted Rmax” value (CD94/NKG2C; CD94/NKG2C concentration 51.2 μM) was 0.990 and the “binding of peptide-HLA-E complex to CD94/NKG2C normalized to a fitted Rmax” value (CD94/NKG2C; CD94/NKG2C concentration 102.4 μM) was 0.983. For the same sequence, the “Binding of peptide-HLA-E complexes to CD94/NKG2C normalized to a theoretical Rmax” value (CD94/NKG2C; CD94/NKG2C analyte concentration 0 μM) was 0.000, the “Binding of peptide-HLA-E complexes to CD94/NKG2C normalized to a theoretical Rmax” value (CD94/NKG2C; CD94/NKG2C analyte concentration 0.1 μM) was 0.024 and the “Binding of peptide-HLA-E complexes to CD94/NKG2C normalized to a theoretical Rmax” value (CD94/NKG2C; CD94/NKG2C analyte concentration 0.2 μM) was 0.044. For the same sequence, the “Binding of peptide-HLA-E complexes to CD94/NKG2C normalized to a theoretical Rmax” value (CD94/NKG2C; CD94/NKG2C analyte concentration 0.4 μM) was 0.076, the “Binding of peptide-HLA-E complexes to CD94/NKG2C normalized to a theoretical Rmax” value (CD94/NKG2C; CD94/NKG2C analyte concentration 0.8 μM) was 0.123 and the “Binding of peptide-HLA-E complexes to CD94/NKG2C normalized to a theoretical Rmax” value (CD94/NKG2C; CD94/NKG2C analyte concentration 1.6 μM) was 0.180. For the same sequence, the “Binding of peptide-HLA-E complexes to CD94/NKG2C normalized to a theoretical Rmax” value (CD94/NKG2C; CD94/NKG2C analyte concentration 3.2 μM) was 0.240, the “Binding of peptide-HLA-E complexes to CD94/NKG2C normalized to a theoretical Rmax” value (CD94/NKG2C; CD94/NKG2C analyte concentration 6.4 μM) was 0.294 and the “Binding of peptide-HLA-E complexes to CD94/NKG2C normalized to a theoretical Rmax” value (CD94/NKG2C; CD94/NKG2C analyte concentration 12.8 μM) was 0.333. For the same sequence, the “Binding of peptide-HLA-E complexes to CD94/NKG2C normalized to a theoretical Rmax” value (CD94/NKG2C; CD94/NKG2C analyte concentration 25.6 μM) was 0.359, the “Binding of peptide-HLA-E complexes to CD94/NKG2C normalized to a theoretical Rmax” value (CD94/NKG2C; CD94/NKG2C analyte concentration 51.2 μM) was 0.366 and the “Binding of peptide-HLA-E complexes to CD94/NKG2C normalized to a theoretical Rmax” value (CD94/NKG2C; CD94/NKG2C analyte concentration 102.4 μM) was 0.363.
